The record followed here is US20240182445A1 (ONO PHARMACEUTICAL CO., LTD., priority 2019, published 2024).

One assay concerns the target T1, human TREK-1 (Homo sapiens, UniProt O95069).
T1 construct: expressed in transfected cells
T1 sequence (O95069 1-426): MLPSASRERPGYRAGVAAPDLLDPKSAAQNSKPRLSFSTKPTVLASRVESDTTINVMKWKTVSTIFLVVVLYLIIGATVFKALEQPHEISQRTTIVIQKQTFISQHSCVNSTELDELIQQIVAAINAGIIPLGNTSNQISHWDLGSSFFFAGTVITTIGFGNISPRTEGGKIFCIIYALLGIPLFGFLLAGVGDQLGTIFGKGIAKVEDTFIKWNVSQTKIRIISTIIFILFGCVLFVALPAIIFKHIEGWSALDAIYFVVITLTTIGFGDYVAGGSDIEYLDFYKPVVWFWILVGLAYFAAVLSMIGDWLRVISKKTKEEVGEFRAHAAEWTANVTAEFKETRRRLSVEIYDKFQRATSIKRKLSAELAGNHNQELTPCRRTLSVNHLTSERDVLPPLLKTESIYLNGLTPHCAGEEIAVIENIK
Nature of the assay: TREK-1 Thallium (Tl+) flux assay, Method 1. Format: cell-based. The note with it: TREK-1 Thallium (Tl+) flux assay, Method 1. The method in brief:
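CHO-K1 cells stably expressing human TREK-1, loaded with Thallos dye, received compound or 0.3% DMSO vehicle for 10 min before thallium stimulus buffer. ΔRatio is fluorescence at 25 s after thallium addition over mean pre-addition fluorescence; % inhibition calculated from it.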
Consider `CC(=O)N1CCOC(Cn2ncc(Cl)c2C(=O)Nc2ccc(OCc3ccccc3)cc2C)C1` (stereo not drawn) [Compound 423, 1-((4-acetylmorpholin-2-yl)methyl)-N-(4-(benzyloxy)-2-methylphenyl)-4-chloro-1H-pyrazole-5-carboxamide], for which the half-maximal inhibitory concentration (IC50) (commonly the midpoint of a concentration-inhibition curve) is 4.82 µM.

The assay is the same for the next values; noted with them: TREK-1 Thallium (Tl+) flux assay; no *^12 (Method 2) mark on these rows.
Compound `Cc1cc(OCc2ccccc2)ccc1NC(=O)c1c(Cl)cnn1[C@H]1CC[C@@H](NC(=O)CC(C)C)CC1` [Compound 382, N-(4-(benzyloxy)-2-methylphenyl)-4-chloro-1-(cis-4-(3-methylbutanamido)cyclohexyl)-1H-pyrazole-5-carboxamide] had a concentration for half-maximal inhibition (IC50) of 0.61 µM.

For the compound `CC(=O)N1CCC(n2ncc(Cl)c2C(=O)Nc2ncc(C#Cc3ccc(F)cc3)cc2F)[C@H](F)C1` (stereo in doubt) [Compound 213, 1-((3R,4R)-1-acetyl-3-fluoropiperidin-4-yl)-4-chloro-N-(3-fluoro-5-((4-fluorophenyl)ethynyl)pyridin-2-yl)-1H-pyrazole-5-carboxamide], the IC50 was 0.33 µM.

In the case of `CC1CN(C(=O)OC(C)(C)C)CCC1Cn1ncc(Cl)c1C(=O)Nc1ncc(C#Cc2ccccc2)cc1F` (stereo not drawn) [Compound 318, tert-butyl 4-((4-chloro-5-((3-fluoro-5-(phenylethynyl)pyridin-2-yl)carbamoyl)-1H-pyrazol-1-yl)methyl)-3-methylpiperidine-1-carboxylate], the 50% inhibitory concentration (IC50) amounted to 0.61 µM. This IC50 is about 1.8-fold higher than that of the compound before.

In turn, `Cc1cc(C#Cc2ccccc2)cnc1NC(=O)c1c(Cl)cnn1[C@@H]1CC[C@@H](NC(=O)OC(C)(C)C)C1` [Compound 291, tert-butyl ((1R,3R)-3-(4-chloro-5-((3-methyl-5-(phenylethynyl)pyridin-2-yl)carbamoyl)-1H-pyrazol-1-yl)cyclopentyl)carbamate] had a 50% inhibitory concentration (IC50) of 0.52 µM.

For `COc1ccc(-c2cnc(NC(=O)c3c(Cl)cnn3C3CCN(C(=O)OC(C)(C)C)CC3)c(C)c2)cc1C(C)C` [Compound 390, tert-butyl 4-(4-chloro-5-((5-(3-isopropyl-4-methoxyphenyl)-3-methylpyridin-2-yl)carbamoyl)-1H-pyrazol-1-yl)piperidine-1-carboxylate], 1.21 µM corresponded to half-maximal inhibition (IC50).

With `CCN1CC(n2ncc(Cl)c2C(=O)Nc2ncc(C#Cc3ccccc3)cc2C)C1` [Compound 377, 4-chloro-1-(1-ethylazetidin-3-yl)-N-(3-methyl-5-(phenylethynyl)pyridin-2-yl)-1H-pyrazole-5-carboxamide], the IC50 turned out to be 1.71 µM.

Take `Cc1cc(C#Cc2ccccc2)cnc1NC(=O)c1c(Cl)cnn1[C@@H]1CCOC1` [Compound 224, (R)-4-chloro-N-(3-methyl-5-(phenylethynyl)pyridin-2-yl)-1-(tetrahydrofuran-3-yl)-1H-pyrazole-5-carboxamide]: it took 0.75 µM to reach half-maximal inhibition (IC50).

`Cc1cc(C#Cc2ccccc2)cnc1NC(=O)c1c(Cl)cnn1C[C@H]1C[C@@H]2CC[C@H]1O2` (racemic) [Compound 259, 4-chloro-N-[3-methyl-5-(phenylethynyl)pyridin-2-yl]-1-{[(1S,2S,4R)-7-oxabicyclo[2.2.1]heptan-2-yl]methyl}-1H-pyrazole-5-carboxamide and 4-chloro-N-[3-methyl-5-(phenylethynyl)pyridin-2-yl]-1-{[(1R,2R,4S)-7-oxabicyclo[2.2.1]heptan-2-yl]methyl}-1H-pyrazole-5-carboxamide] registered a half-inhibitory concentration (IC50) of 0.43 µM.

Staying with this assay, now noted: TREK-1 Thallium (Tl+) flux assay; values without footnote *12 are Method 1.
The compound `CC(=O)N1CCC(n2ncc(Cl)c2C(=O)Nc2ncc(C#Cc3cccc(F)c3)cc2F)CC1` [Compound 25, 1-(1-acetylpiperidin-4-yl)-4-chloro-N-(3-fluoro-5-((3-fluorophenyl)ethynyl)pyridin-2-yl)-1H-pyrazole-5-carboxamide] displayed an IC50 of 0.09 µM.

As to `O=C(Nc1ncc(C#Cc2ccc(F)cc2)cc1F)c1c(Cl)cnn1[C@H]1CC[C@@H](NC(=O)C2COCCO2)CC1` (stereo partly drawn) [Compound 23, 1-(cis-4-(1,4-dioxane-2-carboxamido)cyclohexyl)-4-chloro-N-(3-fluoro-5-((4-fluorophenyl)ethynyl)pyridin-2-yl)-1H-pyrazole-5-carboxamide], the IC50 worked out at 0.08 µM. This IC50 and that of the compound before are within 1.5-fold of each other.

The compound `N#CCCCn1ncc(Cl)c1C(=O)Nc1ncc(C#Cc2ccccc2)cc1F` [Compound 59, 4-chloro-1-(3-cyanopropyl)-N-(3-fluoro-5-(phenylethynyl)pyridin-2-yl)-1H-pyrazole-5-carboxamide] came in with a 50% inhibitory concentration (IC50) of 0.15 µM. Compared with the last compound, the IC50 is about 1.9-fold higher.

On to `CC(=O)N1CCC(n2ncc(Cl)c2C(=O)Nc2ncc(C#Cc3cccs3)cc2F)CC1` [Compound 18, 1-(1-acetylpiperidin-4-yl)-4-chloro-N-(3-fluoro-5-(thiophen-2-ylethynyl)pyridin-2-yl)-1H-pyrazole-5-carboxamide], for which the half-inhibitory concentration (IC50) stood at 0.06 µM.

Compound `CCNC(=O)N1CCC(n2ncc(Cl)c2C(=O)Nc2ncc(C#Cc3cccs3)cc2C)CC1` [Compound 73, 4-(4-chloro-5-((3-methyl-5-(thiophen-2-ylethynyl)pyridin-2-yl)carbamoyl)-1H-pyrazol-1-yl)-N-ethylpiperidine-1-carboxamide] gave an IC50 of 0.16 µM.

`CC(=O)N1CC[C@@H](Cn2ncc(Cl)c2C(=O)Nc2ncc(C#Cc3ccccc3)cc2C)[C@@H](F)C1` [Compound 109, 1-(((3R,4S)-1-acetyl-3-fluoropiperidin-4-yl)methyl)-4-chloro-N-(3-methyl-5-(phenylethynyl)pyridin-2-yl)-1H-pyrazole-5-carboxamide]: the IC50 is 0.19 µM.

Take `CC(=O)N[C@H]1C[C@@H](n2ncc(Cl)c2C(=O)Nc2ncc(C#Cc3ccccc3)cc2C)C1` [Compound 64, 1-(cis-3-acetamidocyclobutyl)-4-chloro-N-(3-methyl-5-(phenylethynyl)pyridin-2-yl)-1H-pyrazole-5-carboxamide]: the concentration for half-maximal inhibition (IC50) was found to be 0.15 µM. The IC50 values of the last two compounds are within 1.5-fold of each other.

For the compound `Cc1cc(C#Cc2ccccc2)cnc1NC(=O)c1c(Cl)cnn1C1CCN(C(=O)C(C)C)C1` (stereo not drawn) [Compound 136, 4-chloro-1-(1-isobutyrylpyrrolidin-3-yl)-N-(3-methyl-5-(phenylethynyl)pyridin-2-yl)-1H-pyrazole-5-carboxamide], half-maximal inhibition (IC50) was put at 0.22 µM.

`CC(=O)N[C@H]1CC[C@H](n2ncc(Cl)c2C(=O)Nc2ncc(C#Cc3ccc(F)cc3)cc2C)CC1` [Compound 193, 1-(trans-4-acetamidocyclohexyl)-4-chloro-N-(5-((4-fluorophenyl)ethynyl)-3-methylpyridin-2-yl)-1H-pyrazole-5-carboxamide] showed a 50% inhibitory concentration (IC50) of 0.29 µM.

`CC(C)(C)OC(=O)N1C[C@H]2C[C@H](n3ncc(Cl)c3C(=O)Nc3ncc(C#Cc4ccccc4)cc3F)C[C@H]2C1` [Compound 170, tert-butyl (3aR,5s,6aS)-5-(4-chloro-5-{[3-fluoro-5-(phenylethynyl)pyridin-2-yl]carbamoyl}-1H-pyrazol-1-yl)hexahydrocyclopenta[c]pyrrole-2(1H)-carboxylate] showed an IC50 of 0.27 µM.

Take `O=C(Nc1ncc(C#Cc2ccccc2)cc1F)c1c(Cl)cnn1C[C@H]1CCOC1` [Compound 60, (R)-4-chloro-N-(3-fluoro-5-(phenylethynyl)pyridin-2-yl)-1-((tetrahydrofuran-3-yl)methyl)-1H-pyrazole-5-carboxamide]: half-maximal inhibition (IC50) was put at 0.15 µM.

Turning to `Cc1cc(C#Cc2ccccc2)cnc1NC(=O)c1c(Cl)cnn1C1CCN(S(C)(=O)=O)CC1` [Compound 163, 4-chloro-N-(3-methyl-5-(phenylethynyl)pyridin-2-yl)-1-(1-(methylsulfonyl)piperidin-4-yl)-1H-pyrazole-5-carboxamide], half-maximal inhibition (IC50) required 0.26 µM. Against the preceding compound, the IC50 is about 1.7-fold higher.
